{
  "source": "patent US20260124173A1",
  "about": "“THERAPEUTIC ALKALOID COMPOUNDS” (Sensorium Therapeutics, Inc., priority 2023, published 2026)",
  "key": {"SERT": {"target": "T1, SERT (Homo sapiens, UniProt P31645)", "T1 construct": "expressed in transfected cells", "T1 sequence (P31645 whole entry, species assumed)": "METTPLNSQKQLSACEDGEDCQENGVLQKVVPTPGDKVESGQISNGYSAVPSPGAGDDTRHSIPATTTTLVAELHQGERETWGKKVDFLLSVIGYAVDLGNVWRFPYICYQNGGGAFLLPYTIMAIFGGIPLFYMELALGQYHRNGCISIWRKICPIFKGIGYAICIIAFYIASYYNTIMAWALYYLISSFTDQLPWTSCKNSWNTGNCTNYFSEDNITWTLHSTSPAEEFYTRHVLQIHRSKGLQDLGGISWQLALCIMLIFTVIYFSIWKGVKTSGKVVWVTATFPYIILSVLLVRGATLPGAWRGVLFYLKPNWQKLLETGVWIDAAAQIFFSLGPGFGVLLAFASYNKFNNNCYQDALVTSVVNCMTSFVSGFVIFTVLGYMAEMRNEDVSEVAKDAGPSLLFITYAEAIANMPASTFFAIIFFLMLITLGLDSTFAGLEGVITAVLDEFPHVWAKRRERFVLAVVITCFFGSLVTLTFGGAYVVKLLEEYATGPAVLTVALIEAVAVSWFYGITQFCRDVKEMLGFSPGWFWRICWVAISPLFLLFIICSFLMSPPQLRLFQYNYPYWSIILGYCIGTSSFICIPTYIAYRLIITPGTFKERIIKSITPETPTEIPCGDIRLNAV", "assay": "SERT inhibition assay (Neurotransmitter Transportation Fluorescence assay, stable 5 HTT cells)", "format": "cell-based", "method": "SERT inhibition can be measured using a Neurotransmitter Transportation Fluorescence assay. Briefly, stable 5 HTT cells were prepared in a 384 microwell plate. Compounds were prepared in assay buffer (20 mM HEPES, 0.1% BSA). The compounds were added to the plated cells and incubated for 30 minutes at 37° C. 25 μL of dye solution (Molecular Devices Neurotransmitter Transporter Uptake Assay Kit) is added per well and incubated for 30 minutes at 37° C. The plates are then read on a plate reader."}, "[1]": {"assay": "Intestinal S9 metabolic stability, rat", "format": "in vitro ADME", "method": "(§1) A master solution was prepared according to the Table B2 below.\n(§2) Add 222.5 μL of master solution and 25 μL of 10 mM NADPH solution to the incubation plates. Pre-warm for 10 min. The reaction was started with the addition of 2.5 μL of 100 μM control compound or test compound solutions. Verapamil, Midazolam and Testosterone were used as positive control in this study. The final concentration of control compounds and test compounds was 1 μM. Aliquots of 25 μL were taken from the reaction solution at 0.5, 5, 15, 30, 45 and 60 minutes. The reaction was stopped by the addition of 5 volumes of cold acetonitrile with IS (100 nM alprazolam, 200 nM caffeine and 100 nM tolbutamide). Samples were centrifuged at 3, 220 g for 30 minutes. Aliquot of 100 μL of the supernatant was mixed with 100 μL of ultra-pure H2O and then used for LC-MS/MS analysis.\n(§3) All calculations were carried out using Microsoft Excel. Peak areas were determined from extracted ion chromatograms. The slope value, k, was determined by linear regression of the natural logarithm of the remaining percentage of the parent drug vs. incubation time curve. The in vitro half-life (in vitro t1/2) was determined from the slope value:\n(§4) Conversion of the in vitro t1/2 (min) into the in vitro intrinsic clearance (in vitro CLint, in uL/min/mg protein) was done using the following equation (mean of duplicate determinations): […]"}, "[2]": {"format": "in vitro ADME, dog", "method": "as §1, §2, §3, §4"}, "[3]": {"assay": "Intestinal S9 metabolic stability, human", "format": "in vitro ADME", "method": "as §1, §2, §3, §4\nThe metabolic stability of Compound 243 was tested in human, monkey, dog and rat (2 replicate measurement). For comparison, verapamil was tested in human and monkey (2 replicates), midazolam was tested in dog (2 replicates), and testosterone was tested in rat (2 replicates)."}, "[4]": {"details": "in vivo; cited from earlier work"}},
  "note": "Like-named read-outs stand apart in the source and are kept apart here.",
  "data": [
    {"smiles": "COc1ccc([C@@]23CCC(C)=C[C@@H]2N(C)CC3)cc1OC", "note": "[Compound 243, (3aS,7aS)-3a-(3,4-dimethoxyphenyl)-1,6-dimethyl-2,3,3a,4,5,7a-hexahydro-1H-indole]", "values": [
      {"measurement": "IC50", "setting": "SERT; Table B1", "result": "< 50", "unit": "nM"},
      {"measurement": "median CLint (micrograms/min/mg protein), times greater for testosterone than Compound 243", "setting": "[1]; 1 µM", "result": "about 30 times"},
      {"measurement": "median half-life, times greater than the half-life of testosterone", "setting": "[1]; Compound 243 versus testosterone", "result": "about 30 times"},
      {"measurement": "median half-life, times greater than the half-life of midazolam", "setting": "[2]", "result": "more than 168 times"},
      {"measurement": "median CLint (micrograms/min/mg protein), times greater for midazolam than Compound 243", "setting": "[2]; dog, 1 µM", "result": "more than 164 times"},
      {"measurement": "median half-life, times greater than verapamil", "setting": "[3]", "result": 33, "unit": "times"},
      {"measurement": "median CLint (micrograms/min/mg protein), times greater for verapamil than Compound 243", "setting": "[3]; human, 1 µM", "result": "more than 23 times"},
      {"measurement": "half-life at 1 µM", "setting": "[3]; human, s9", "result": "> 24", "unit": "h"}
    ]},
    {"smiles": "COc1ccc([C@@]23CCC(=O)C[C@@H]2N(C)CC3)cc1OC", "note": "[Compound 001, (−)-Mesembrine]", "values": [
      {"measurement": "half-life in plasma", "setting": "[4]", "result": "less than 2 hours"}
    ]},
    {"smiles": "COc1ccc([C@@]23CC=C(C)C[C@@H]2N(C)CC3)cc1OC", "note": "[drawing 203]", "values": [
      {"measurement": "IC50", "setting": "SERT", "result": "< 50", "unit": "nM"}
    ]},
    {"smiles": "COc1ccc([C@@]23CCC(C)=C[C@@H]2N(C)CC3)cc1OC", "note": "[drawing 205]", "values": [
      {"measurement": "IC50", "setting": "SERT", "result": "< 50", "unit": "nM"}
    ]},
    {"smiles": "COc1ccc([C@@]23CCC(C)=C[C@@H]2N(C)CC3)cc1OC", "note": "[drawing 204]", "values": [
      {"measurement": "IC50", "setting": "SERT", "result": "< 50", "unit": "nM"}
    ]},
    {"smiles": "COc1ccc([C@@]23CC=C(C)C[C@@H]2N(C)CC3)cc1OC", "note": "[Compound 242, (3aS,7aS)-3a-(3,4-dimethoxyphenyl)-1,6-dimethyl-2,3,3a,4,7,7a-hexahydro-1H-indole]", "values": [
      {"measurement": "IC50", "setting": "SERT; Table B1", "result": "< 50", "unit": "nM"}
    ]}
  ]
}
